Where “and” joins values, the source holds several entries; their conditions need not be identical. Identical values can stand only once. Counter-ions that a name gives are not always drawn. Like-named read-outs stand apart in the source and are kept apart here.
Assays:
SARS-CoV-2 [1] = assay: microbe, parasite or virus in culture; format: cell-based; settings: for Emax: Severe acute respiratory syndrome coronavirus 2, HeLa-ACE2, 24 h, curve plateau at infinite concentration, read-out: HeLa-ACE2 CoV-2 Sinf Average
[2] = Uninfected HeLa-ACE2 24 h live/dead cytotoxicity counter screen; format: cell-based, human; settings: human, uninfected HeLa-ACE2 cells
HeLa-ACE2 cells [3] = assay: as above; format: cell-based, human; settings: curve plateau at infinite concentration
SARS-CoV-2 [4] = assay: microbe, parasite or virus in culture; format: cell-based; settings: for Emax: Severe acute respiratory syndrome coronavirus 2, Calu-3, 48 h, curve plateau at infinite concentration, read-out: Calu-3 CoV-2 Sinf Average
SARS-CoV-2 [5] = assay: microbe, parasite or virus in culture; format: cell-based; settings: for Emax: Severe acute respiratory syndrome coronavirus 2, HeLa-ACE2, 10 h, curve plateau at infinite concentration, read-out: HeLa-ACE2 TOA CoV-2 Sinf Average; for EC50: Severe acute respiratory syndrome coronavirus 2, HeLa-ACE2, read-out: HeLa-ACE2 TOA CoV-2 EC50 GeoMean
SARS-CoV-2 [6] = format: cell-based; settings: for HeLa-ACE2 synergy score with remdesivi [δ]: combination with remdesivir
SARS-CoV-2 [7] = format: cell-based; settings: 72 hpi
SARS-CoV-2 [8] = assay: Golden Syrian hamster SARS-CoV-2 efficacy model, body weight; format: in vivo; settings: for hamster weight relative to day 0, individual animals: 500 mg/kg PO
SARS-CoV-2 [9] = assay: Hamster lung viral titer by plaque assay, day 5; format: in vivo, Golden Syrian hamster; settings: 500 mg/kg PO; values look like log10
[10] = Pharmacokinetic studies in Syrian hamsters, PO; format: in vivo; settings: 500 mg/kg PO; for AUC(0-t): po, 500 mg/kg
Experimental: Pharmacokinetic studies were conducted at Scripps Research Institute’s Animal Models Core in accordance with IACUC guidelines (IACUC Protocol #09-0004-5). Eight-week-old male Syrian Hamsters (Charles River; three per group) were dosed PO as indicated for each compound and formulation. Plasma concentration of each test article was monitored up to 48 h. Nelfinavir was formulated in 10% DMSO/90% corn oil and MK-4482 was formulated in 10% PEG400/2.5% Cremaphor RH40 for both pharmacokinetic and efficacy studies.

HeLa-ACE2 cells [11] = assay: Total cell count in the HeLa-ACE2 TOA assay; format: cell-based
Excerpt: Supplement 41467_2021_23328_MOESM3_ESM.xlsx, sheet "Table S1" | column: HeLa-ACE2 TOA cell count

HeLa-ACE2 cells [12] = assay: cells; settings: Homo sapiens; for EC50: HeLa-ACE2, read-out: HeLa-ACE2 cell count EC50 GeoMean
Calu-3 cells [13] = assay: cells; settings: Homo sapiens; for EC50: Calu-3, read-out: Calu-3 cell count EC50 GeoMean
[14] = ref [33]-[49], cited from earlier work
[15] = HepG2 72 h CellTiter-Glo cytotoxicity; settings: human, HepG2 cells
HepG2 [16] = assay: HepG2 72 h CellTiter-Glo cytotoxicity; settings: 72 h
[17] = HEK293T 72 h CellTiter-Glo cytotoxicity; settings: human, HEK293T cells
HEK293T [18] = assay: HEK293T 72 h CellTiter-Glo cytotoxicity; settings: 72 h
[19] = Uninfected Calu-3 48 h Cell-Titer Glo cytotoxicity counter screen; settings: human, uninfected Calu-3 cells, Calu-3 Uninf. cells CC50 (µM), reconfirmed hits
Calu-3 cells [20] = assay: as above; settings: curve plateau at infinite concentration
Calu-3 cells [21] = test system: Calu-3 cells
HepG2 [22] = settings: human, 72 h
HEK293T [23] = settings: human, 72 h
in vitro [24] = settings: human, Calu-3 uninfected cytotoxicity CC50 GeoMean
in vitro [25] = settings: human
in vitro [26] = settings: human; remark: listed apart in the source
[27] = read-out: HeLa-ACE2 uninfected cytotoxicity CC50 GeoMean
[28] = male, Syrian, hamster, plasma, 10%DMSO/90% Corn Oil

Cc1c(O)cccc1C(=O)N[C@@H](CSc1ccccc1)[C@H](O)CN1C[C@H]2CCCC[C@H]2C[C@H]1C(=O)NC(C)(C)C [Nelfinavir mesylate]
Emax (SARS-CoV-2 [1]): 100% | EC50 (SARS-CoV-2 [1]; Severe acute respiratory syndrome coronavirus 2, HeLa-ACE2, reconfirmed hits, read-out: HeLa-ACE2 SARS-CoV-2 EC50): > 8.64 µM | CC50 at 24 h ([2]; reconfirmed hits, read-out: HeLa-ACE2 Uninf. cells CC50): > 18 µM | CC50 at 24 h [2, 27]: > 18 µM | HeLa-ACE2 uninfected cytotoxicity Sinf Average (HeLa-ACE2 cells [3]): -100% | Emax (SARS-CoV-2 [4]): 90% | EC50 (SARS-CoV-2 [4]; Severe acute respiratory syndrome coronavirus 2, Calu-3, reconfirmed hits, read-out: Calu-3 SARS-CoV-2 EC50): 0.361 µM | Emax (SARS-CoV-2 [5]): 100% | EC50 (SARS-CoV-2 [5]): > 8.35 µM | Synergy score with remdesivir (δ) (SARS-CoV-2 [6]): −1.23 | interaction with remdesivir (SARS-CoV-2 [6]; ZIP model): additive (Additive effect: -10< δ <10) | dose-response point, normalized infected cells (SARS-CoV-2 [6]; alone, Concentration [uM] -7.08145): 8.854 and 6.527 and 6.904 | HeLa-ACE2 synergy score with remdesivi [δ] (SARS-CoV-2 [6]): -1.233 | reduction in apical viral loads (SARS-CoV-2 [7]): > 1 log | protection from weight loss and viral replication (SARS-CoV-2 [8]; 500 mg/kg PO BID): failed to protect animals from weight loss and viral replication | hamster weight relative to day 0, individual animals (SARS-CoV-2 [8]; Day 1): 99.1786 and 96.9182 and 97.0207 and 99.8527 | hamster weight relative to day 0, individual animals (SARS-CoV-2 [8]; Day 2): 97.2793 and 94.4654 and 95.1466 and 96.8581 | hamster weight relative to day 0, individual animals (SARS-CoV-2 [8]; Day 3): 95.4312 and 90.7547 and 93.8011 and 92.8326 | hamster weight relative to day 0, individual animals (SARS-CoV-2 [8]; Day 4): 92.4025 and 86.7925 and 92.1672 and 89.1998 | hamster weight relative to day 0, individual animals (SARS-CoV-2 [8]; Day 5): 90.1951 and 82.0755 and 91.0139 and 86.6961 | viral titers in lungs, individual animals (SARS-CoV-2 [9]): 9.667 and 7.176 and 8.778 and 9.217 | plasma level of nelfinavir, individual animals ([10]; 0:30:00): 40.7 and 326 and 282 | plasma level of nelfinavir, individual animals ([10]; 1:00:00): 20.2 and 6320 and 206 | plasma level of nelfinavir, individual animals ([10]; 3:00:00): 108 and 244 and 71.4 | plasma level of nelfinavir, individual animals ([10]; 7:00:00): 156 and 276 and 245 | Cl (mL/min/kg) ([10]; 10%DMSO/90% Corn Oil): 2,542.16 mL/min/kg | Vd ([10]; 10%DMSO/90% Corn Oil): 706.35 L/kg | plasma level of nelfinavir, individual animals ([10]; 24:00:00): BQL and 41 and 2.73 | plasma level of nelfinavir, individual animals ([10]; 32:00:00): BQL and 16.9 and 0.47 | plasma level of nelfinavir, individual animals ([10]; 48:00:00): BQL (2×) and 1.81 | plasma exposure versus HeLa-ACE2 SARS-CoV-2 EC50 ([10]; hamster): failed to reach exposures above HeLa-ACE2 SARS-CoV-2 EC50 | AUC(0-t) ([10]; male, Syrian, hamster, plasma, 10%DMSO/90% Corn Oil, read-out: AUC0-24): 3760 ng·h/mL | AUC(0-t) ([10]; male, Syrian, hamster, plasma, 10%DMSO/90% Corn Oil, read-out: AUCLAST): 3870 ng·h/mL | AUC(0-inf) [10, 28]: 5480 ng·h/mL | Cmax [10, 28]: 2250 ng/mL | MRT [10, 28]: 5.82 h | Tmax [10, 28]: 2.83 h | half-life [10, 28]: 4.02 h | Emax (HeLa-ACE2 cells [11]; Homo sapiens, HeLa-ACE2, 10 h, read-out: HeLa-ACE2 TOA cell count Sinf Average): 100% | EC50 (HeLa-ACE2 cells [11]; Homo sapiens, HeLa-ACE2, read-out: HeLa-ACE2 TOA cell count EC50 GeoMean): > 9.6 µM | EC50 (HeLa-ACE2 cells [12]): > 9.6 µM | Emax (Calu-3 cells [13]; Calu-3, 48 h, read-out: Calu-3 cell count Sinf Average): 79% | EC50 (Calu-3 cells [13]): 0.875 µM | Approx. t1/2 ([14]; human): 7 h | Cmax ([14]; read-out: Approx. Cmax, human oral): 17 µM | CC50 at 72 h [15]: > 39.8 µM | HepG2 72-hour cytotoxicity Sinf Average (HepG2 [16]): -100% | CC50 at 72 h [17]: 15.7 µM | HEK293T 72-hour cytotoxicty Sinf Average (HEK293T [18]): -100% | CC50 at 48 h [19]: > 9.4 µM | Calu-3 uninfected cytotoxicity Sinf Average (Calu-3 cells [20]): -93%

COC(=O)C1=C(C)NC(C)=C(C(=O)OCCN2CCN(C(c3ccccc3)c3ccccc3)CC2)C1c1cccc([N+](=O)[O-])c1 (centres unmarked) [Manidipine (Manyper)]
Emax (SARS-CoV-2 [1]): 100% | EC50 (SARS-CoV-2 [1]; Severe acute respiratory syndrome coronavirus 2, HeLa-ACE2, detail column, read-out: HeLa-ACE2 CoV-2 EC50 GeoMean): > 6.89 µM | CC50 at 24 h [2, 27]: > 17.1 µM | HeLa-ACE2 uninfected cytotoxicity Sinf Average (HeLa-ACE2 cells [3]): -96% | Emax (SARS-CoV-2 [4]): 80% | EC50 (SARS-CoV-2 [4]; Severe acute respiratory syndrome coronavirus 2, Calu-3, detail column, read-out: Calu-3 CoV-2 EC50 GeoMean): > 5.48 µM | Emax (SARS-CoV-2 [5]): 100% | EC50 (SARS-CoV-2 [5]): 7.72 µM | HeLa-ACE2 synergy score with remdesivi [δ] (SARS-CoV-2 [6]): -4.727 | EC50 (HeLa-ACE2 cells [11]; Homo sapiens, HeLa-ACE2; read-out: HeLa-ACE2 TOA cell count EC50 GeoMean): > 9.61 µM | uninfected Calu-3 CC50 (Calu-3 cells [21]): > 29.89 ×÷ 1.002 (n=5) μM | Calu-3 uninfected cytotoxicity Sinf Average (Calu-3 cells [21]; human, 48 h): -100% | HepG2 72-hour cytotoxicity Sinf Average (HepG2 [22]): -100% | HEK293T 72-hour cytotoxicty Sinf Average (HEK293T [23]): -100% | Emax (HeLa-ACE2 cells [12]; HeLa-ACE2, 24 h, read-out: HeLa-ACE2 cell count Sinf Average): 100% | EC50 (HeLa-ACE2 cells [12]): > 9.6 µM | EC50 (Calu-3 cells [13]): > 9.98 µM | CC50 at 48 h (in vitro [24]): > 29.9 µM | CC50 at 72 h (in vitro [25]): 30.7 µM | CC50 at 72 h (in vitro [26]): 30.8 µM

— PMC8175350, “Drug repurposing screens identify chemical entities for the development of COVID-19 interventions” (Nature Communications, 2021)
